Results taken from patent publication EP4796538A1, “NOVEL QUINOXALINE COMPOUNDS, MANUFACTURING METHOD THEREOF, AND USES THEREOF” (Gachon University of Industry-Academic Cooperation …, priority 2023, dated 2025).

Assays:
[1] = test system: BaF3 KIF5B-RET (V804M); assay: Cell proliferation inhibition, Cell Counting Kit-8, Ba/F3 cell line; assay type: cell-based, rodent; conditions: Mus musculus, 72 hours incubation, read-out: Cell Viability of BaF3 Cell lines (IC50 in uM) KIF5B-RET (V804M)
Description: To evaluate the inhibitory activity of the compounds represented by Formula I or Formula IV according to the present invention against RET mutation-driven cell growth in the Ba/F3 cell line and against cell growth in the non-small cell lung cancer cell line A-549, the following experiment was performed.
Each cell line was seeded in a 96-well plate at 1×10^4 cells/90 µL/well, and 10 µL/well of culture medium containing each example and intermediate compound or DMSO control at 9 concentrations (1 nM to 100 µM) prepared by 3-fold serial dilutions was added to achieve a final concentration of 0 to 100 µM, followed by incubation for 72 hours in a 37°C, 5% CO2 incubator. After 72 hours of incubation, the compound-treated plates were removed, and Cell Counting Kit-8 solution was added at 10 µL/well and mixed well. The plates were then incubated for 2 hours in a CO2 incubator at 37°C, and the absorbance was measured at 450 nm using a microplate reader.
The absorbance of the experimental group relative to that of the DMSO control group was converted to % survival, and the IC50 values representing the concentration required to inhibit cell growth by 50% were calculated. As a control compound, selpercatinib, a known RET inhibitor, was treated to calculate the IC50 values.

[2] = molecular target: T1, KIF5B-RET (Homo sapiens, UniProt P07949); assay: Kinase panel inhibition, radiolabeled [γ-33P] ATP (Reaction Biology Corp); assay type: biochemical; conditions: read-out: Enzymatic inhibitory activity (IC50) nM KIF5B-RET
T1 sequence (P07949 713-1114): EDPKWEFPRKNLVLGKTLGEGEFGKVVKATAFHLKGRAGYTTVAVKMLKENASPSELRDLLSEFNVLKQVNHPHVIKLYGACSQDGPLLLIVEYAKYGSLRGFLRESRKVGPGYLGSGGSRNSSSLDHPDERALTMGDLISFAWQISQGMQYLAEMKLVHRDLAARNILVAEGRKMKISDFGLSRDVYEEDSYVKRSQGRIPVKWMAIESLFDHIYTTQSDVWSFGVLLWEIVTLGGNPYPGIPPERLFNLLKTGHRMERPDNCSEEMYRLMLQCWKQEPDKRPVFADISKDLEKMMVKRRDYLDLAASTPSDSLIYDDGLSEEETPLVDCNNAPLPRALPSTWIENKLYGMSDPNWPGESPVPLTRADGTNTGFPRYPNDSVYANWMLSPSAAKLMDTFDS
T1 sequence (P33176 2-575 partner): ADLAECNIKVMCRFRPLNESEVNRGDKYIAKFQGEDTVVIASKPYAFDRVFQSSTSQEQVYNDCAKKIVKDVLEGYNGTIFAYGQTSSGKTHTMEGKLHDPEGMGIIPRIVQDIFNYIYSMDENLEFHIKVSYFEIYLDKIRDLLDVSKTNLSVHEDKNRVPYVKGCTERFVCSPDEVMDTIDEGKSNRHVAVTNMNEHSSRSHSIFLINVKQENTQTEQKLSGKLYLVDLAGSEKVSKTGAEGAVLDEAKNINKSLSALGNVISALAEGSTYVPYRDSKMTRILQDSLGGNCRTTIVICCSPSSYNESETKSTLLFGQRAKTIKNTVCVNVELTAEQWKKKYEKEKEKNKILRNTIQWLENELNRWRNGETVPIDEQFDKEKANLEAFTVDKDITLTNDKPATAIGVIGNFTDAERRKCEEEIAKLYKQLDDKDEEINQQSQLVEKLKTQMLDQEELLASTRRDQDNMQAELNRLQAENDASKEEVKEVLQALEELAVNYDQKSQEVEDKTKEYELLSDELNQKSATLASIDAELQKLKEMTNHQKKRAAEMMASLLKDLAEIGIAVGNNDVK
Description: The inhibitory activities of the example and intermediate compounds of the present invention against a kinase panel (Reaction Biology Corp) of RET and RET mutations (RET(G810R), RET(V804M), KIF5B-RET, RET(V804M)-KIF5B, RET-CCDC6, RET-NCOA4, and RET(G810S/M918T)) were investigated. Using radiolabeled ATP ([γ-33P] ATP), the degree to which the substrate was replaced by a 33P-phosphorylated substrate was measured, and changes in kinase activity were determined from the measurement of the radiolabeled phosphorylated substrate. The example and intermediate compounds were tested at concentrations of 0.1 µM to 30 µM against ATP concentrations of 1 µM or 10 µM. The residual activity (%) of the example and intermediate compounds after inhibition against each kinase panel is shown in Tables 3 to 5 below. […]

Row | Structure (SMILES) | IC50 [1] [µM] | IC50 [2] [nM]
1 | Nc1cc(-c2ccc(N3CC(Oc4cccc(F)c4)C3)nc2)c2nccnc2c1 [Example 1, 8-(6-(3-(3-fluorophenoxy)azetidin-1-yl)pyridin-3-yl)quinoxalin-6-amine] | 1.02 | 2.2
2 | CCNc1cc(-c2ccc(N3CC(Oc4cccc(F)c4)C3)nc2)c2nccnc2c1 [Example 3, N-ethyl-8-(6-(3-(3-fluorophenoxy)azetidin-1-yl)pyridin-3-yl)quinoxalin-6-amine] | 0.12 | < 0.5
